Experimental findings from US20230247995A1, “FUNGICIDAL COMBINATIONS” (UPL Corporation Limited, priority 2022, published 2023) are described below.

Type in all cases: in vivo
For experiment [1], the system named is Monilinia fructicola. Kind of experiment: Efficacy against brown rot affecting peach crop. As to conditions: Ipflufenoquin 4, Pyrimethanil 8.9, combination 4 + 8.9 fl oz/a; for % Severity on Fruit: untreated 63.8; for % Disease incidence on Fruit: untreated 96. How it is done:
Experiments were carried out to evaluate the efficacy of the fungicidal combination of ipflufenoquin and pyrimethanil against brown rot (Monilinia fructicola) affecting peach crop, as disclosed in Table 4.

For experiment [2], the system named is Wilsonomyces spp. Kind of experiment: Efficacy against Coryneum blight affecting peach crop. As to conditions: Ipflufenoquin 4, Pyrimethanil 8.9, combination 4 + 8.9 fl oz/a; for % Severity on Fruit: untreated 69.9; for % Disease incidence on Fruit: untreated 100. How it is done:
Experiments were carried out to evaluate the efficacy of the fungicidal combination of ipflufenoquin and pyrimethanil against Coryneum blight (Wilsonomyces spp.) affecting peach crop, as disclosed in Table 5.

In experiment [3] the test system is Cladosporium sp. Kind of experiment: Efficacy against scab affecting pecan (nuts). To be noted: untreated 33.8. How it is done:
Experiments were carried out to evaluate the efficacy of the fungicidal combination of ipflufenoquin and pyrimethanil (both tank mix fungicidal combination and pre-mix formulation as disclosed in Example 1) against scab (Cladosporium sp.) affecting pecan (i.e., nuts), as disclosed in Table 6.

The mark [4] stands for this setting: higher rates: Ipflufenoquin 5, Pyrimethanil 11.1, tank mix 5 + 11.1, pre-mix 12.5 fl oz/a.
Where [5] appears, read: lower rates: Ipflufenoquin 4, Pyrimethanil 8.9, tank mix 4 + 8.9, pre-mix 10 fl oz/a.

The structures appear in SMILES notation.

With `Cc1nc2c(F)c(F)ccc2cc1Oc1cccc(F)c1C(C)(C)O` [Ipflufenoquin, 2-{2-[(7,8-difluoro-2-methyl-3-quinolyl)oxy]-6-fluorophenyl}propan-2-ol], the “% Severity on Fruit” value in experiment [1] stood at 20.3%; in experiment [2] it was 6.9%. Also, the “% Disease incidence on Fruit” value in experiment [1] turned out to be 42.5%; in experiment [2], 36.8%. For the same compound, the figures for the “% Severity on Nuts” value in experiment [3] (setting [4]) and in experiment [3] (setting [5]) were 6.7% and 8.4%, respectively.
Consider `Cc1cc(C)nc(Nc2ccccc2)n1` [Pyrimethanil, N-(4,6-dimethylpyrimidin-2-yl) aniline], for which the “% Severity on Fruit” value turned out to be 15.5% in experiment [1] and 42.8% in experiment [2]. The “% Disease incidence on Fruit” value is 19.5% in experiment [1] and 65.8% in experiment [2]. The “% Severity on Nuts” value in experiment [3] (setting [4]) is 15.7%; in experiment [3] (setting [5]) it was 19.2%.
